Reference: patent US20200333324A1, “METHOD OF PREDICTING CLINICAL OUTCOME OF ANTICANCER AGENTS” (MITRA RXDX, INC., priority 2017, published 2020)

Tests used:
Type in all cases: cell-based, human
HNSCC tumor tissue [1] = experiment: M-score clinical outcome predictor: tumor microenvironment platform assays (WST-1, LDH, ATP, glucose uptake, Caspase 3/8, Ki67, H&E) input into machine-trained algorithm; design: scale not given here
Description: Utilizing primary and late stage HNSCC patient samples (n=16) we interrogated phenotypic response to both Pembrolizumab (KEYTRUDA) and Nivolumab (OPDIVO), two FDA-approved PD-1 inhibitors, as single agents on the tumor microenvironment platform with tumor tissue from the same patient. To do this, we assayed tumor proliferation (Ki67) and apoptosis (active caspase-3), in addition to using a comprehensive panel of immunological assays to evaluate changes in the immune compartment (CD8, CD45, FOXP3, CXCR4, CD68, PDL1, PD1) and cytokine profile (IL6, IL8, IFN-g and IL12).

HNSCC tumor tissue [2] = experiment: IHC for CD8, PD-L1, PD-1 and FOXP3 positive cells in tumor microenvironment platform; conditions: T3
Procedure: The effect of Pembrolizumab and Nivolumab on CD8^+ T cell tumor infiltration was then evaluated. Tumor sections from the same patient cultured for 72 hours in the tumor microenvironment platform were treated with Pembrolizumab, Nivolumab, or IgG as control and stained for H&E, Ki67, Caspase 3, and CD8 at day 3 in culture (T3). Baseline staining was determined at TO. […] To further elucidate the effects of the anti-PD-1 antibodies, FACS analysis was performed on tumor tissue from patient 2941 and patient 2942 treated with either Pembrolizumab, Nivolumab, or IgG control. […] By contrast, there was no effect of either Pembrolizumab or Nivolumab on CD8^+ T cell infiltration for patient 2942, further highlighting the differential response between individuals to PD-1 blockade. CD8^+ T cell infiltration was evaluated in the tumor microenvironment platform with tumor tissue from the same patient, and comparisons for control vs Nivo, control vs Pembro, Nivo vs Pembro, and control vs Nivo vs Pembro for multiple patients are shown in FIG. 6 (each line represents results from the tumor microenvironment platform cultured with tumor tissue from a single individual).
The effect of Pembrolizumab and Nivolumab on the expression of immunoregulatory molecules, including PD-1 and FOXP3, in the tumor microenvironment platform tumor microbed was evaluated. Tumor sections from the same patient cultured for 3 days (72 hours) in the tumor microenvironment platform were treated with Pembrolizumab, Nivolumab, or IgG control and stained for CD8, FOXP3, and PD-1 at day 3 in culture (T3). Baseline staining was determined at TO. Results are shown in FIG. 7A for tumor sections from a predicted responder to Pembrolizumab or Nivolumab and FIG. 7B for a predicted non-responder to Pembrolizumab or Nivolumab, as characterized by M-score. There was in increase in the number of PD-1^+ cells in the tumor microbed for both Pembrolizumab and Nivolumab, which was to a greater degree in the case of Nivolumab, when compared to IgG control in the responder (FIG. 7A). There was no change for either Pembrolizumab and Nivolumab in the non-responder (FIG. 7B). The numbers of PD-L1^+ tumor cells, PD-1^+ T cells, FOXP3^+ T-regulatory cells, and CD8^+ T cells were evaluated using the tumor microenvironment platform with tumor tissue from the same patient in Nivolumab, Pembrolizumab, and control conditions, and are summarized in Table 3. Comparisons for control vs Nivo, control vs Pembro, Nivo vs Pembro, and control vs Nivo vs Pembro for multiple patients are shown in FIG. 8 (each line represents results from the tumor microenvironment platform cultured with tumor tissue from a single individual).

HNSCC tumor tissue [3] = experiment: Granzyme B and Perforin secretion assays, HNSCC tumor sections in tumor microenvironment platform; conditions: predicted non-responder, 48 hours
Procedure: FIGS. 9A and 9B show quantification of results for Granzyme B and Perforin secretion assays for HNSCC tumor tissue cultured in the tumor microenvironment platform treated with Pembrolizumab, Nivolumab, or IgG control for 24 or 48 hours.
HNSCC tumor sections from the same patient cultured for 24 or 48 hours in the tumor microenvironment platform with Pembrolizumab, Nivolumab, or IgG as control were assayed for Granzyme B and Perforin secretion. Results are shown in FIG. 9A for the tumor microenvironment platform with tumor tissue from a predicted responder and FIG. 9B for the tumor microenvironment platform with tumor tissue from a predicted non-responder. After treatment with Pembrolizumab for 48 hours, there was an increase in both Granzyme B and Perforin secretion in the tumor microenvironment platform with tissue from the predicted responder compared to treatment with the control IgG. By contrast, at 48 hours in the tumor microenvironment platform with tissue from the predicted non-responder there was no increase in Granzyme B or Perforin secretion for treatment with either Pembrolizumab or Nivolumab.

Substance: Nivolumab
- M-score (HNSCC tumor tissue [1]; Patient ID 2918): 27
- M-score (HNSCC tumor tissue [1]; Patient ID 2928): 19
- M-score (HNSCC tumor tissue [1]; Patient ID 2941): 41
- M-score (HNSCC tumor tissue [1]; Patient ID 2948): 12
- M-score (HNSCC tumor tissue [1]; Patient ID 2949): 11
- M-score (HNSCC tumor tissue [1]; Patient ID 2956): 10
- M-score (HNSCC tumor tissue [1]; Patient ID 2978): 33
- M-score (HNSCC tumor tissue [1]; Patient ID 2981): 6
- # cells/field PD-1^+ (HNSCC tumor tissue [2]; Patient ID 2916, control 0): 0 cells/field
- # cells/field PD-L1^+ (HNSCC tumor tissue [2]; Patient ID 2916, control 1): 2 cells/field
- # cells/field FOXP3^+ (HNSCC tumor tissue [2]; Patient ID 2916, control 3): 4 cells/field
- # cells/field CD8^+ (HNSCC tumor tissue [2]; Patient ID 2916, control 20): 30 cells/field
- # cells/field PD-1^+ (HNSCC tumor tissue [2]; Patient ID 2918, control 2): 0 cells/field
- # cells/field FOXP3^+ (HNSCC tumor tissue [2]; Patient ID 2918, control 3): 2 cells/field
- # cells/field CD8^+ (HNSCC tumor tissue [2]; Patient ID 2918, control 10): 3 cells/field
- # cells/field PD-L1^+ (HNSCC tumor tissue [2]; Patient ID 2918, control 10): 20 cells/field
- # cells/field PD-1^+ (HNSCC tumor tissue [2]; Patient ID 2926, control 0): 0 cells/field
- # cells/field PD-L1^+ (HNSCC tumor tissue [2]; Patient ID 2926, control 3): 3 cells/field
- # cells/field FOXP3^+ (HNSCC tumor tissue [2]; Patient ID 2926, control 4): 3 cells/field
- # cells/field CD8^+ (HNSCC tumor tissue [2]; Patient ID 2926, control 25): 20 cells/field
- # cells/field PD-1^+ (HNSCC tumor tissue [2]; Patient ID 2928, control 0): 0 cells/field
- # cells/field PD-L1^+ (HNSCC tumor tissue [2]; Patient ID 2928, control 0): 3 cells/field
- # cells/field CD8^+ (HNSCC tumor tissue [2]; Patient ID 2928, control 4): 15 cells/field
- # cells/field FOXP3^+ (HNSCC tumor tissue [2]; Patient ID 2928, control 4): 5 cells/field
- # cells/field CD8^+ (HNSCC tumor tissue [2]; Patient ID 2939, control 0): 2 cells/field
- # cells/field PD-1^+ (HNSCC tumor tissue [2]; Patient ID 2939, control 0): 0 cells/field
- # cells/field FOXP3^+ (HNSCC tumor tissue [2]; Patient ID 2939, control 1): 2 cells/field
- # cells/field PD-L1^+ (HNSCC tumor tissue [2]; Patient ID 2939, control 10): 10 cells/field
- # cells/field PD-1^+ (HNSCC tumor tissue [2]; Patient ID 2941, control 0): 2 cells/field
- # cells/field FOXP3^+ (HNSCC tumor tissue [2]; Patient ID 2941, control 3): 2 cells/field
- # cells/field PD-L1^+ (HNSCC tumor tissue [2]; Patient ID 2941, control 3): 5 cells/field
- # cells/field CD8^+ (HNSCC tumor tissue [2]; Patient ID 2941, control 5): 3 cells/field
- # cells/field PD-1^+ (HNSCC tumor tissue [2]; Patient ID 2942, control 0): 0 cells/field
- # cells/field PD-L1^+ (HNSCC tumor tissue [2]; Patient ID 2942, control 0): 0 cells/field
- # cells/field CD8^+ (HNSCC tumor tissue [2]; Patient ID 2942, control 3): 1 cells/field
- # cells/field FOXP3^+ (HNSCC tumor tissue [2]; Patient ID 2942, control 3): 4 cells/field
- # cells/field FOXP3^+ (HNSCC tumor tissue [2]; Patient ID 2948, control 1): 1 cells/field
- # cells/field PD-1^+ (HNSCC tumor tissue [2]; Patient ID 2948, control 1): 0 cells/field
- # cells/field PD-L1^+ (HNSCC tumor tissue [2]; Patient ID 2948, control 10): 1 cells/field
- # cells/field CD8^+ (HNSCC tumor tissue [2]; Patient ID 2948, control 20): 20 cells/field
- # cells/field PD-1^+ (HNSCC tumor tissue [2]; Patient ID 2949, control 1): 3 cells/field
- # cells/field FOXP3^+ (HNSCC tumor tissue [2]; Patient ID 2949, control 5): 5 cells/field
- # cells/field PD-L1^+ (HNSCC tumor tissue [2]; Patient ID 2949, control 20): 20 cells/field
- # cells/field CD8^+ (HNSCC tumor tissue [2]; Patient ID 2949, control 50): 35 cells/field
- # cells/field PD-1^+ (HNSCC tumor tissue [2]; Patient ID 2956, control 0): 0 cells/field
- # cells/field CD8^+ (HNSCC tumor tissue [2]; Patient ID 2956, control 1): 7 cells/field
- # cells/field PD-L1^+ (HNSCC tumor tissue [2]; Patient ID 2956, control 2): 3 cells/field
- # cells/field FOXP3^+ (HNSCC tumor tissue [2]; Patient ID 2956, control 8): 10 cells/field
- # cells/field PD-1^+ (HNSCC tumor tissue [2]; Patient ID 2963, control 0): 0 cells/field
- # cells/field CD8^+ (HNSCC tumor tissue [2]; Patient ID 2963, control 6): 4 cells/field
- # cells/field FOXP3^+ (HNSCC tumor tissue [2]; Patient ID 2963, control 10): 2 cells/field
- # cells/field PD-L1^+ (HNSCC tumor tissue [2]; Patient ID 2963, control 12): 12 cells/field
- # cells/field PD-1^+ (HNSCC tumor tissue [2]; Patient ID 2978, control 0): 0 cells/field
- # cells/field FOXP3^+ (HNSCC tumor tissue [2]; Patient ID 2978, control 1): 1 cells/field
- # cells/field PD-L1^+ (HNSCC tumor tissue [2]; Patient ID 2978, control 1): 1 cells/field
- # cells/field CD8^+ (HNSCC tumor tissue [2]; Patient ID 2978, control 12): 17 cells/field
- # cells/field PD-1^+ (HNSCC tumor tissue [2]; Patient ID 2979, control 0): 0 cells/field
- # cells/field FOXP3^+ (HNSCC tumor tissue [2]; Patient ID 2979, control 2): 1 cells/field
- # cells/field PD-L1^+ (HNSCC tumor tissue [2]; Patient ID 2979, control 5): 5 cells/field
- # cells/field CD8^+ (HNSCC tumor tissue [2]; Patient ID 2979, control 25): 25 cells/field
- # cells/field PD-1^+ (HNSCC tumor tissue [2]; Patient ID 2980, control 0): 0 cells/field
- # cells/field FOXP3^+ (HNSCC tumor tissue [2]; Patient ID 2980, control 1): 1 cells/field
- # cells/field PD-L1^+ (HNSCC tumor tissue [2]; Patient ID 2980, control 8): 1 cells/field
- # cells/field CD8^+ (HNSCC tumor tissue [2]; Patient ID 2980, control 30): 10 cells/field
- # cells/field FOXP3^+ (HNSCC tumor tissue [2]; Patient ID 2981, control 0): 1 cells/field
- # cells/field PD-1^+ (HNSCC tumor tissue [2]; Patient ID 2981, control 0): 0 cells/field
- # cells/field PD-L1^+ (HNSCC tumor tissue [2]; Patient ID 2981, control 0): 0 cells/field
- # cells/field CD8^+ (HNSCC tumor tissue [2]; Patient ID 2981, control 1): 15 cells/field
- CD8^+ T cell infiltration (IHC) (HNSCC tumor tissue [2]; patient 2941, vs IgG control): increased CD8^+ T cell infiltration
- number of PD-1^+ cells in the tumor microbed (HNSCC tumor tissue [2]; predicted non-responder, vs IgG control): no change
- number of PD-1^+ cells in the tumor microbed (HNSCC tumor tissue [2]; predicted responder, vs IgG control, to a greater degree in the case of Nivolumab): increase
- Granzyme B secretion (HNSCC tumor tissue [3]): no increase
- Perforin secretion (HNSCC tumor tissue [3]): no increase
